From patent US20040122209A1, “Products for regulating the degradation of collagen and methods for identifying same” (Shriners Hospital For Children, priority 2002, published 2004)

How the values were obtained:
[1] = test system: isolated human chondrocytes; assay: Cell attachment assay (total cellular hexosaminidase); assay type: cell-based; settings: preliminary studies
Experimental: Ninety six-well, non-tissue culture plates were coated with a peptide fragment of the invention (CB12-II), a negative control peptide (USP), or human fibronectin in PBS at various concentrations overnight at room temperature in the laminar flow hood. […] Optimal binding was obtained with concentration of 10 μg/ml for CB12-II. After the plates were washed once with PBS, additional protein binding sites in the plate wells were blocked with 5% heat-denatured BSA in PBS at 37° […] for 1 hour. Freshly isolated human chondrocytes were recovered for 2 hours as described above, and then added to on substrate-coated plates at the density of 1×10^7 cells/ml (0.5-2×10^6 cells/well) and incubated at 37° C. for 1 hour. The chondrocyte suspensions were preincubated with 5 μg/ml anti-integrin blocking antibodies (from Chemicon): al (clone CB12), a2 (clone P1E6), a5, (clone DID6), α1 (clone 6S6), α2 (cloneP4H9), α3 (clone 25EW), α2β1 (clone BHA2.1), and α5β1 (clone JBS5) at 4° C. for 30 min prior to adding cells to the pre-coated wells for 1 hour at 37° C. Unattached cells were removed and the wells were washed gently twice with PBS. Bound cells were then quantitated by measuring total cellular hexosaminidase as described (36, 37). […] After a 6-h incubation, 90 μl of 50 mM glycine, 5 mM EDTA, pH 10.4 was added, and the absorbance was read at 405 nm.

[2] = test system: bovine articular cartilage explant; assay: Proteoglycan (GAG) content and release in bovine explant culture; assay type: cell-based; settings: subpeptides at 1 and 10 μM
Experimental: The cartilages were prepared as previously described (Dahlberg, L. et al. (2000) supra. In brief, the cartilage samples were washed three times with basal culture medium containing Dulbecco's modified Eagle's medium (DMEM; Gibco BRL, Life Technologies, Grand Island, N.Y.) with 20 mM HEAPS buffer (pH 7.4) (Gibco BRL), 45 mM NaHCO3, 100 units/ml penicillin, 100 μg/ml streptomycin and 150 μg/ml gentamycin sulphate (Medium A). Full-depth cartilage slices from a single area, around 20 mm×20 mm were cut vertical to the articular surface and then into cubes of approximately 2 mm×2 mm (5-7 cubes were randomly obtained and wet weights about 50-70 mg/well determined). The cartilage was assigned to 48 well plate (ca 40 mg/well) and kept in Medium A supplemented with 50 μg/ml ascorbic acid, 0.1 mg/bovine serum albumin, 50 μg/ml insulin, 5.0 μg/ml and 5.0 μg/ml sodium DMEM alone at 37° C. in 95% air/5% CO2. The cartilage was precultured for 2 days and medium was changed at day 0. Thereafter medium (as described in pellet cultures) was replaced every four days. Various CNBr fragments and/or synthetic peptides were freshly added from day 0 at each medium change. Thereafter, cartilage explants and conditioned media were harvested and stored at −20° C. In order to show the specificity of the peptide fragments of one embodiment on degradation of type II collagen as compared with proteoglycan, primarily aggrecan, sulphated glycosaminoglycan (GAG) content was determined in both the α-chymotrypsin and proteinase K digests for total proteoglycan (predominantly aggrecan) content in cell pellets, cartilage explants and also in conditioned media. Measurement of release of proteoglycan into media was tested using dimethylene blue dye binding as previously described (Dahlberg, L. et al. (2000) supra).

Sequence: ERGPPGPQGARGFPGTPGLPGVK [CB12-II]
- coating concentration giving optimal binding of chondrocytes [1]: 10 µg/mL
- proteoglycan breakdown [2]: no significant effect
